Assay: Translational diffusion NMR (DOSY)
Assay type: physicochemical
Settings: 500 MHz, 10 °C, 1.8 mM peptide, 100 mM sodium phosphate pH 7.0, 100% D2O, 1% dioxane as reference
Method: The NMR spectra were acquired at 10 °C on a Bruker Avance 500 MHz spectrometer (Bruker GmbH, Karlsruhe, Germany), equipped with a triple resonance probe and z-pulse field gradients. Spectra were processed with Bruker TopSpin 2.1 (Bruker GmbH, Karlsruhe, Germany). […] Spectra were calibrated with 3-(trimethylsilyl) propionic acid-2,2,3,3-^2H4-sodium salt (TSP), by considering pH-dependent changes of its chemical shifts; the probe temperature was calibrated with pure methanol [49].
Measurements of the translational self-diffusion coefficient, D, were performed with the pulsed-gradient spin-echo sequence in the presence of 100% D2O. […] The gradient strength was varied in sixteen linear steps between 2% to 95% of the total power of the gradient coil. Gradient strength was calibrated by using the value of D for the residual proton water signal in a sample containing 100% D2O, in a 5-mm tube [51]. The length of the gradient was 2.5 ms; the time between two pulse gradients in the pulse sequence was 250 ms; and the recovery delay between the bipolar gradients was 100 µs. […] A final concentration of 1% of dioxane, which was assumed to have a hydrodynamic radius Rh = 2.12 Å [51], was added to the solution.

C1COCCO1 [dioxane]
translational diffusion coefficient D: 5.3 ± 0.6 × 10^−6 cm^2 s^−1

— article PMC9739371, “Deciphering the Binding of the Nuclear Localization Sequence of Myc Protein to the Nuclear Carrier Importin α3” (International Journal of Molecular Sciences, 2022)
